Laboratory results: patent US9340506B2, “Acetamide derivatives as glucokinase activators, their process and medicinal applications” (ADVINUS THERAPEUTICS LIMITED, priority 2007, dated 2016)

Target: purified human recombinant GK (Homo sapiens (Human), UniProt P35557)
Experiment: Glucokinase activity assay (coupled enzymatic, G6PD/NADH absorbance at 340 nm)
Format: biochemical
Details: for EC50: EC50 of % change in S0.5 of glucokinase for glucose, sigmoidal fit, read-out: EC50 (with respect to % ΔS0.5); for Emax / % Emax (with respect to % ΔS0.5): Emax of % change in S0.5 of glucokinase for glucose, vehicle S0.5 = 0%, 0 mM glucose = 100%; for Emax: read-out: % Emax (with respect to % ΔS0.5)
Source text: The glucokinase (GK) assay is a coupled enzymatic assay. GK catalyzes the first step of glycolysis, the conversion of glucose to glucose-6-phosphate (G6P) in the presence of ATP. G6P in turn is converted by glucose-6-phosphate dehydrogenase (G6PD) to 6-phosphogluconate, a process that requires NAD, resulting in NADH formation. Since the GK-catalyzed step is the rate-limiting step of this coupled enzymatic process, the rate of accumulation of 6-phosphogluconate and NADH is directly proportional to the rate of glucose phosphorylation by GK. The rate of the GK-catalyzed reaction can therefore be measured by monitoring the increase in NADH absorbance at 340 nm.
The assay is carried out according to the protocol outlined in Hariharan et al (1997), Diabetes 46: 11-16. Briefly, the test compounds are incubated in a reaction mix containing 25 mM HEPES (pH 7.2), 10 mM MgCl2, 100 mM KCl, 5 mM ATP, 2 mM DTT, 0.5 mM NAD, 1 U/mL Leuconostoc mesenteroides G6PD, 0.3 U/mL of purified human recombinant GK, and different concentrations of glucose. Enzymatic activity is calculated from the initial reaction velocity, measured from the change in NADH absorbance as a function of time.
Compounds described in formula (I), in concentration ranges from 1.0 nM to 500 μM, are tested in the purified human recombinant glucokinase assay described above.
A compound is considered to be a glucokinase activator if it, in its testable range of concentrations, yields a higher rate of glucose phosphorylation than in its absence at a particular glucose concentration, for example at 5 mM glucose.
Compounds of general formula (I) are tested in the in vitro GK enzymatic assay to monitor dose-dependent effect on glucokinase activation (in kinetic mode), as described above, at various glucose concentrations. The S0.5 of glucokinase for glucose at different concentration of each compound of interest is calculated from the following modified version of the Michaelis-Menten equation, V=Vmax [S]^n/(S0.5^n+[S]^n), where [S] is the glucose concentration and n is the Hill coefficient (taken as 1.7 to account for the sigoidal kinetics of glucokinase with respect to glucose). The S0.5 is plotted against the log of the compound concentration. The change in the S0.5 of glucokinase (ΔS0.5) for glucose is calculated by subtracting the S0.5 at each concentration of the compound from the S0.5 in the vehicle control. The ΔS0.5 is then normalized to a percent scale, where the S0.5 in the vehicle control is set to 0% and 0 mM glucose is set to 100%. The % ΔS0.5 is then plotted against the log of the compound concentration. The EC50 and Emax of % change in S0.5 is obtained from the sigoidal fit of the data. Detailed protocol has been described in our copending application no. 409/CHE/2007 which is incorporated herein by reference. Characterization data of some representative glucokinase activators of the present disclosure, which are illustrative but not limiting, are given in table I below.

Chain of purified human recombinant GK (P35557 whole entry): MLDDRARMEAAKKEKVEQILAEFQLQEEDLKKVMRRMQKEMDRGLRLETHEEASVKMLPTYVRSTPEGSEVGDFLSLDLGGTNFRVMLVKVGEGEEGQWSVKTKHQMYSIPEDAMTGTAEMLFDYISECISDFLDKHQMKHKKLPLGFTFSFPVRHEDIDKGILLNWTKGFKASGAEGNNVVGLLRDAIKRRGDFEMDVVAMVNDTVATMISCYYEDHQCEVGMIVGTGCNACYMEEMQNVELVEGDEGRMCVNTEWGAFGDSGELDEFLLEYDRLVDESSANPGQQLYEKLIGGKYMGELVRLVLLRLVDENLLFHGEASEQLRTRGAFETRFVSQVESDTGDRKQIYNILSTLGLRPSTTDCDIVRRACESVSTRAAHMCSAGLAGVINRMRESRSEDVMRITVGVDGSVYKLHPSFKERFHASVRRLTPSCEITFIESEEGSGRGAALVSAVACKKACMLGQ

| EC50 | Emax | % Emax (with respect to % ΔS0.5) | Structure (SMILES) |
| --- | --- | --- | --- |
| 260 nM | 91% |  | O=C(Nc1ncc(-n2cccn2)s1)C(Oc1ccc(F)cc1F)c1ccc(S(=O)(=O)C2CC2)cc1 (single isomer, unassigned; (+)) [Example G4A, (+)2-(4-cyclopropylsulfonylphenyl)-2-(2,4-difluorophenoxy)-N-(5-pyrazol-1-ylthiazol-2-yl)acetamide] |
| 94 nM | 91% |  | CC(C)(C(=O)O)c1ccc(Oc2cnc(NC(=O)C(OC3CCOCC3)c3ccc(S(=O)(=O)C4CC4)cc3)s2)cc1 (single isomer, unassigned; (+)) [Example G5A, (+)2-[4-[2-[[2-(4-cyclopropylsulfonylphenyl)-2-tetrahydropyran-4-yloxy-acetyl]amino]thiazol-5-yl]oxyphenyl]-2-methyl-propanoic acid] |
| 570 nM | 92% |  | Cc1ccc(Oc2cnc(NC(=O)C(O[C@@H]3CCOC3)c3ccc(S(=O)(=O)C4CC4)cc3)s2)cc1C(=O)O (single isomer, unassigned; (+)) [Example G11A] |
| 300 nM | 90% |  | O=C(O)c1cnn(-c2cnc(NC(=O)C(OC3CCOCC3)c3ccc(S(=O)(=O)C4CC4)cc3)s2)c1 (single isomer, unassigned; (+)) [Example G12A, (+)1-[2-[[2-(4-cyclopropylsulfonylphenyl)-2-tetrahydropyran-4-yloxy-acetyl]amino]thiazol-5-yl]pyrazole-4-carboxylic acid] |
| 380 nM | 99% |  | Cc1cc(Oc2cnc(NC(=O)C(O[C@@H]3CCOC3)c3ccc(S(=O)(=O)C4CC4)cc3)s2)ccc1C(=O)O (single isomer, unassigned; (+)) [Example G14A] |
| 100 nM | 95% |  | CCOC(=O)c1cccc(Oc2cnc(NC(=O)C(OC3CCOCC3)c3ccc(S(=O)(=O)C4CC4)cc3)s2)c1 (single isomer, unassigned; (+)) [Example G19A, (+)ethyl 3-[2-[[2-(4-cyclopropylsulfonylphenyl)-2-tetrahydropyran-4-yloxy-acetyl]amino]thiazol-5-yl]oxybenzoate] |
| 290 nM | 95% |  | O=C(O)c1cncc(Oc2cnc(NC(=O)C(OC3CCOCC3)c3ccc(S(=O)(=O)C4CC4)cc3)s2)c1 (single isomer, unassigned; (+)) [Example G22A, (+)5-[2-[[2-(4-cyclopropylsulfonylphenyl)-2-tetrahydropyran-4-yloxy-acetyl]amino]thiazol-5-yl]oxypyridine-3-carboxylic acid] |
| 330 nM |  | 92% | Cc1cc(Oc2cnc(NC(=O)C(OC3CCOCC3)c3ccc(S(=O)(=O)C4CC4)cc3)s2)ccc1C(=O)O (single isomer, unassigned; (-)) [Example G1B, (−)4-[2-[[2-(4-cyclopropylsulfonylphenyl)-2-tetrahydropyran-4-yloxy-acetyl]amino]thiazol-5-yl]oxy-2-methyl-benzoic acid] |
| 420 nM | 94% |  | O=C(O)Cc1nc(NC(=O)C(OC2CCOCC2)c2ccc(S(=O)(=O)N3CCCCC3)cc2)sc1Cl (single isomer, unassigned; (-)) [Example G3B, (−)2-[5-chloro-2-[[2-[4-(1-piperidylsulfonyl)phenyl]-2-tetrahydropyran-4-yloxy-acetyl]amino]thiazol-4-yl]acetic acid] |
| 640 nM |  | 79% | O=C(Nc1ncc(-n2cccn2)s1)C(Oc1ccc(F)cc1F)c1ccc(S(=O)(=O)C2CC2)cc1 (single isomer, unassigned; (-)) [Example G4B, (−)2-(4-cyclopropylsulfonylphenyl)-2-(2,4-difluorophenoxy)-N-(5-pyrazol-1-ylthiazol-2-yl)acetamide] |
| 1400 nM | 89% |  | O=C(Nc1nccs1)C(OC1CCOCC1)c1ccc(S(=O)(=O)C2CC2)cc1 (stereo not shown) [Example A-1, 2-(4-Cyclopropylsulfonylphenyl)-2-tetrahydropyran-4-yloxy-N-thiazol-2-yl-acetamide] |
